Source: patent US20180147183A1, “USE OF R-OXIRACETAM IN PHARMACEUTICAL FIELD” (Chongqing Runze Pharmaceutical Co., Ltd., priority 2015, published 2018)
“And” between values parts separate entries of the source, which are not always exact repeats. Equal values may be shown once. Marks after values point to notes of the source that are not given here.

Experiments:
[1] = Pharmacokinetics and bioavailability in dogs, plasma determined by LC-MS; type: in vivo, dog
Procedure: A. The Pharmacokinetics of R-Oxiracetam In Vivo and Studies of Bioavailability
4 Determination Methods of Oxiracetam and R-Oxiracetam in Plasma by LC-MS
4.1 Chromatographic Conditions
Mobile phase: methanol: water (5:95)
Column: ZORBAX SB-Aq (2.1×100 mm 3.5μ)
Column temperature: 30° C.;
Injection volume: […] 4.2 Mass Spectrometry Detection Parameters
Mass spectrometry ionization method: electrospray ionization (ESI); ion polarity Positive; scanning mode for multiple reactions monitoring (MRM); scanning time of 100 ms. The ionic reactions used for quantitative analysis were m/z (oxiracetam) m/z 159.0→m/z 113.9 and m/z 143.1→m/z 126.0 (piracetam), respectively.
20 μL of the drug-containing the plasma sample is taken in a 1.5 mL Eppendorf tube. 20 μL of piracetam (20 μg/mL) of the internal standard solution is added, and mixed by the vortex mixer for 30s. Then, 500 μL of acetonitrile is added thereto, vortex shaken for 5 min and centrifugated at 16000 rpm for 10 min. The supernatant from the centrifugation was passed through 1 ml of SPE C 18E column and the filtrate was collected, put into 38° C. constant temperature water bath and dried by nitrogen gas. 300 μL of mobile phase was dissolved and the injection volume was 10 μL.
20 μL of blank dog plasma was added into the working solution prepared from the oxiracetam standard. The concentrations of oxiracetam in the plasma were 0.167, 0.33, 0.37, 1.33, 2.67, 4.0, 6.67, 13.33 and 26.67 μg/mL, respectively. A sample was made for each concentration respectively according to the procedures“4.4 Extraction of plasma samples”. The ratio of the peak area (As) of oxiracetam to the peak area (Ai) of the internal standard piracetam (f=As/Ai) were calculated, and perform linear regression using the concentration (C) to the ratio (f). The weight parameter 1/x, and the oxiracetam regression equation: y=5.2117X−0.76985 (r=0.9970, weight 1/x).
20 μL of blank dog plasma was added into the working solution prepared from the R-oxiracetam standard. The concentrations of R-oxiracetam in the plasma were 0.167, 0.33, 0.37, 1.33, 2.67, 4.0, 6.67, 13.33 and 26.67 μg/mL, respectively. A sample was made for each concentration respectively according to the procedures “4.4 Extraction of plasma samples”. The ratio of the peak area (As) of R-oxiracetam to the peak area (Ai) of the internal standard piracetam (f=As/Ai) were calculated, and perform linear regression using the concentration (C) to the ratio (f). The weight parameter 1/x, and the oxiracetam regression equation: y=1.6811X−0.031244(r=0.9949, weight 1/x).

[2] = tested on: Pentetrazol (PTZ) ignited rat epilepsy model; assay: Pentetrazol (PTZ)-ignited rat epilepsy model; type: in vivo, SD rats; conditions: for mortality rate / Numbers of deaths (Number): 10 days
Procedure: Rats were injected intraperitoneally with PTZ at a dose of 35 mg/kg (7 mg/ml, 0.5 ml/100 g body weight) for sub-convulsions three times weekly. The animals are weighed before each ip, and observed for behavioral changes after ip. within 1-2 h. Behavioral scoring was carried out according to the revised Racine score. Three consecutive occurrences of seizures of stage IV and above indicate successful ignition.
The animals successfully ignited were chosen to be grouped. The animals were randomly divided into 4 groups, 8-10/group. […] 3 times of clinical dose were chosen, that is, 500 mg/kg. […] The dosage is 1 ml/100 g, continuous intragastrical administration of 10 days. Specific dose settings are as follows:
PTZ 35 mg/kg. The animals are observed for behavioral changes within 2 h. Behavioral scoring was carried out according to the revised Racine score, continuous administration for 10 days, grading standards as mentioned above.
The seizures were recorded daily ip PTZ within 2 h. The seizure levels, latencies, mortality were recorded, and compared with the model control group.

NC(=O)CN1C[C@H](O)CC1=O [R-oxiracetam, (R)-4-hydroxy-2-oxo-1-pyrrolidineacetamide]
Concentration in dog blood C ([1]; Time 0 h, individual dogs, one table per dog): 0 ng/mL | Concentration in dog blood C ([1]; Time 0.5 h, individual dogs, one table per dog): 30410 ng/mL and 9013 ng/mL and 51070 ng/mL and 7637 ng/mL and 33000 ng/mL and 74670 ng/mL | Concentration in dog blood C ([1]; Time 1 h, individual dogs, one table per dog): 50870.6 ng/mL and 35550 ng/mL and 70640 ng/mL and 48190 ng/mL and 54750 ng/mL and 112164.2 ng/mL | Concentration in dog blood C ([1]; Time 1.5 h, individual dogs, one table per dog): 110222.9 ng/mL and 37880 ng/mL and 76280 ng/mL and 74560 ng/mL and 61910 ng/mL and 58530 ng/mL | Concentration in dog blood C ([1]; Time 6 h, individual dogs, one table per dog): 7637 ng/mL and 14070 ng/mL and 12210 ng/mL and 4648 ng/mL and 10140 ng/mL and 4409 ng/mL | Concentration in dog blood C ([1]; Time 8 h, individual dogs, one table per dog): 3684 ng/mL and 4731 ng/mL and 9036 ng/mL and 2318 ng/mL and 4967 ng/mL and 2215 ng/mL | Concentration in dog blood C ([1]; Time 12 h, individual dogs, one table per dog): 1610 ng/mL and 1913 ng/mL and 2205 ng/mL and 1461.5 ng/mL and 3568 ng/mL and 1333 ng/mL | Concentration in dog blood C ([1]; Time 24 h, individual dogs, one table per dog): 0 ng/mL | concentration at 0 h ([1]; dog, plasma, Time 0 h, individual dogs, one table per dog, read-out: Concentration in dog blood C): 0 ng/mL | concentration at 4 h ([1]; dog, plasma, Time 4 h, individual dogs, one table per dog, read-out: Concentration in dog blood C): 18400 ng/mL | concentration at 24 h ([1]; dog, plasma, Time 24 h, individual dogs, one table per dog, read-out: Concentration in dog blood C): 0 ng/mL | Cmax ([1]; dog, plasma, dogs, mean ± SD): 85800 ± 20000 ng/mL | Tmax ([1]; dog, plasma, dogs, mean ± SD): 2.04 ± 0.401 h | bioavailability ([1]; dog, plasma, dogs, with oxiracetam as a reference, read-out: relative bioavailability): 112 ± 11.6% | Seizure latency (X ± SD) ([2]; High-dose 360 mg/kg daily, D1): 3.83 ± 1.17 m | occurrence rates of stage IV or above seizures ([2]; High-dose 360 mg/kg daily, D1): 4/6 (66.7) % | Seizure latency (X ± SD) ([2]; High-dose 360 mg/kg daily, D2): 5.00 ± 0.89 m | occurrence rates of stage IV or above seizures ([2]; High-dose 360 mg/kg daily, D2): 3/6(50.0) % | Seizure latency (X ± SD) ([2]; High-dose 360 mg/kg daily, D3): 6.17 ± 1.17 m | occurrence rates of stage IV or above seizures ([2]; High-dose 360 mg/kg daily, D3): 3/6 (50.0) % | Seizure latency (X ± SD) ([2]; High-dose 360 mg/kg daily, D4): 6.50 ± 1.05 m | occurrence rates of stage IV or above seizures ([2]; High-dose 360 mg/kg daily, D4): 2/6 (33.3) % | Seizure latency (X ± SD) ([2]; High-dose 360 mg/kg daily, D5): 7.17 ± 0.75 m | occurrence rates of stage IV or above seizures ([2]; High-dose 360 mg/kg daily, D5): 1/6 (16.7) % | Seizure latency (X ± SD) ([2]; High-dose 360 mg/kg daily, D6): 7.83 ± 0.75 m | occurrence rates of stage IV or above seizures ([2]; High-dose 360 mg/kg daily, D6): 1/6 (16.7) % | Seizure latency (X ± SD) ([2]; High-dose 360 mg/kg daily, D7): 8.33 ± 1.03 m | occurrence rates of stage IV or above seizures ([2]; High-dose 360 mg/kg daily, D7): 0/6** (0) % | Seizure latency (X ± SD) ([2]; High-dose 360 mg/kg daily, D8): 8.83 ± 0.98 m | occurrence rates of stage IV or above seizures ([2]; High-dose 360 mg/kg daily, D8): 0/6** (0) % | Seizure latency (X ± SD) ([2]; High-dose 360 mg/kg daily, D9): 8.83 ± 0.75 m | occurrence rates of stage IV or above seizures ([2]; High-dose 360 mg/kg daily, D9): 0/6* (0) % | Seizure latency (X ± SD) ([2]; High-dose 360 mg/kg daily, D10): 9.83 ± 0.75 m | occurrence rates of stage IV or above seizures ([2]; High-dose 360 mg/kg daily, D10): 0/6* (0) % | mortality rate ([2]; High-dose 360 mg/kg intragastric): 0% | Numbers of deaths (Number) ([2]; High-dose 360 mg/kg intragastric, 6 animals, 360 mg/kg): No animal died | Numbers of deaths (Number) ([2]; High-dose 360 mg/kg intragastric, 6 animals, listed as R-Oxiracetam, 360 mg/kg): 0 | Seizure latency (X ± SD) ([2]; Low-dose 120 mg/kg daily, D1): 3.57 ± 1.51 m | occurrence rates of stage IV or above seizures ([2]; Low-dose 120 mg/kg daily, D1): 4/7 (57.1) % | Seizure latency (X ± SD) ([2]; Low-dose 120 mg/kg daily, D2): 4.57 ± 1.72 m | occurrence rates of stage IV or above seizures ([2]; Low-dose 120 mg/kg daily, D2): 4/6(66.7) % | Seizure latency (X ± SD) ([2]; Low-dose 120 mg/kg daily, D3): 5.00 ± 1.15 m | occurrence rates of stage IV or above seizures ([2]; Low-dose 120 mg/kg daily, D3): 3/6 (50.0) % | Seizure latency (X ± SD) ([2]; Low-dose 120 mg/kg daily, D4): 4.86 ± 1.07 m | occurrence rates of stage IV or above seizures ([2]; Low-dose 120 mg/kg daily, D4): 2/6 (33.3) % | Seizure latency (X ± SD) ([2]; Low-dose 120 mg/kg daily, D5): 5.43 ± 0.98 m | occurrence rates of stage IV or above seizures ([2]; Low-dose 120 mg/kg daily, D5): 2/6 (33.3) % | Seizure latency (X ± SD) ([2]; Low-dose 120 mg/kg daily, D6): 6.29 ± 1.11 m | occurrence rates of stage IV or above seizures ([2]; Low-dose 120 mg/kg daily, D6): 2/6 (33.3) % | Seizure latency (X ± SD) ([2]; Low-dose 120 mg/kg daily, D7): 6.86 ± 1.07 m | occurrence rates of stage IV or above seizures ([2]; Low-dose 120 mg/kg daily, D7): 1/6* (16.7) % | Seizure latency (X ± SD) ([2]; Low-dose 120 mg/kg daily, D8): 7.14 ± 1.07 m | occurrence rates of stage IV or above seizures ([2]; Low-dose 120 mg/kg daily, D8): 1/6* (16.7) % | Seizure latency (X ± SD) ([2]; Low-dose 120 mg/kg daily, D9): 7.71 ± 0.76 m | occurrence rates of stage IV or above seizures ([2]; Low-dose 120 mg/kg daily, D9): 0/6* (0) % | Seizure latency (X ± SD) ([2]; Low-dose 120 mg/kg daily, D10): 8.43 ± 0.98 m | occurrence rates of stage IV or above seizures ([2]; Low-dose 120 mg/kg daily, D10): 0/6* (0) % | mortality rate ([2]; Low-dose 120 mg/kg intragastric): 14.3% | Numbers of deaths (Number) ([2]; Low-dose 120 mg/kg intragastric, 7 animals, 120 mg/kg): No animal died | Numbers of deaths (Number) ([2]; Low-dose 120 mg/kg intragastric, 7 animals, listed as R-Oxiracetam, 120 mg/kg): 1
